Experimental data published in patent US20160106814A1, “Novel Oral Pharmaceutical Composition for Treatment of Diabetes” (NOVO NORDISK A/S, priority 2013, published 2016).
*1 amine or outer side, *2 acyl side, *3 side chain or, on linkers, in order; H or OH if unused. Where a SMILES comes first, the peptide text is derived from it. Side-chain parts run from the residue outwards. [ ]: non-standard residue; d: D form. The star is where a group is joined. γGlu = O=C(O)[C@H](CCC(=O)[*:2])N[*:1]; C14 diacid = O=C(O)CCCCCCCCCCCCC(=O)*; AEEA = NCCOCCOCC(=O)O; Aib = CC(C)(N)C(=O)O

Assay: Transport of GLP-1 peptide across mucus-producing E12 cell monolayers in the presence of sodium caprate and BBI
Format: in vitro ADME
Details: pH 7.4, apical to basolateral
Procedure: Buffer was then removed and the experiment initiated. […] Receiver samples (200 μl) were taken every 15 min.
In all samples with GLP-1 peptide and mannitol, the concentration of GLP-1 peptide was determined using a LOCI assay (or LC-MS assay) and scintillation counter, respectively.

[1] = 100 μM GLP-1 peptide + 13 mM sodium caprate + 0.2% BBI
[2] = 100 μM GLP-1 peptide + 13 mM sodium caprate, without BBI

CC[C@H](C)[C@H](NC(=O)[C@H](Cc1ccccc1)NC(=O)[C@H](CCC(=O)O)NC(=O)[C@H](CCCCNC(=O)COCCOCCNC(=O)COCCOCCNC(=O)CC[C@H](NC(=O)CCCCCCCCCCCCC(=O)O)C(=O)O)NC(=O)[C@H](C)NC(=O)[C@H](C)NC(=O)[C@H](CCC(N)=O)NC(=O)[C@H](CCC(=O)O)NC(=O)[C@H](CCC(=O)O)NC(=O)[C@H](CC(C)C)NC(=O)[C@H](Cc1ccc(O)cc1)NC(=O)[C@H](CCCCNC(=O)COCCOCCNC(=O)COCCOCCNC(=O)CC[C@H](NC(=O)CCCCCCCCCCCCC(=O)O)C(=O)O)NC(=O)[C@H](CO)NC(=O)[C@@H](NC(=O)[C@H](CC(=O)O)NC(=O)[C@H](CO)NC(=O)[C@@H](NC(=O)[C@H](Cc1ccccc1)NC(=O)[C@@H](NC(=O)CNC(=O)[C@H](CCC(=O)O)NC(=O)C(C)(C)NC(=O)[C@@H](N)Cc1c[nH]cn1)[C@@H](C)O)[C@@H](C)O)C(C)C)C(=O)N[C@@H](C)C(=O)N[C@@H](Cc1c[nH]c2ccccc12)C(=O)N[C@@H](CC(C)C)C(=O)N[C@H](C(=O)N[C@@H](CCCNC(=N)N)C(=O)NCC(=O)N[C@@H](CCCNC(=N)N)C(=O)NCC(=O)O)C(C)C [GLP-1 peptide 5, N{Epsilon-18}-[2-[2-[2-[[2-[2-[2-[[(4S)-4-carboxy-4-(13-carboxytridecanoylamino)butanoyl]amino]ethoxy]ethoxy]acetyl]amino]ethoxy]ethoxy]acetyl], —N{Epsilon-26}-[2-[2-[2-[[2-[2-[2-[[(4S)-4-carboxy-4-(13-carboxytridecanoylamino)butanoyl]-amino]ethoxy]ethoxy]acetyl]amino]ethoxy]ethoxy]acetyl]-[Aib8,Lys18,Glu22,Arg34]-GLP-1-(7-37)-peptide] (H-H[Aib]EGTFTSDVSK([AEEA-AEEA-γGlu-C14 diacid])YLEEQAAK([AEEA-AEEA-γGlu-C14 diacid])EFIAWLVRGRG-OH)
Papp A→B [1]: 0.592 ×10⁻⁶ cm/s | Papp A→B [2]: 0.314 ×10⁻⁶ cm/s

CC[C@H](C)[C@H](NC(=O)[C@H](Cc1ccccc1)NC(=O)[C@H](CCC(=O)O)NC(=O)[C@H](CCCCNC(=O)COCCOCCNC(=O)COCCOCCNC(=O)CC[C@H](NC(=O)CCCCCCCCCOc1ccc(C(=O)O)cc1)C(=O)O)NC(=O)[C@H](C)NC(=O)[C@H](C)NC(=O)[C@H](CCC(N)=O)NC(=O)[C@H](CCC(=O)O)NC(=O)[C@H](CCC(=O)O)NC(=O)[C@H](CC(C)C)NC(=O)[C@H](Cc1ccc(O)cc1)NC(=O)[C@H](CCCCNC(=O)COCCOCCNC(=O)COCCOCCNC(=O)CC[C@H](NC(=O)CCCCCCCCCOc1ccc(C(=O)O)cc1)C(=O)O)NC(=O)[C@H](CO)NC(=O)[C@@H](NC(=O)[C@H](CC(=O)O)NC(=O)[C@H](CO)NC(=O)[C@@H](NC(=O)[C@H](Cc1ccccc1)NC(=O)[C@@H](NC(=O)CNC(=O)[C@H](CCC(=O)O)NC(=O)C(C)(C)NC(=O)[C@@H](N)Cc1c[nH]cn1)[C@@H](C)O)[C@@H](C)O)C(C)C)C(=O)N[C@@H](C)C(=O)N[C@@H](Cc1c[nH]c2ccccc12)C(=O)N[C@@H](CC(C)C)C(=O)N[C@H](C(=O)N[C@@H](CCC(N)=O)C(=O)NCC(=O)N[C@@H](CCCNC(=N)N)C(=O)NCC(=O)O)C(C)C [GLP-1 peptide 2, N{Epsilon-18}-[2-[2-[2-[[2-[2-[2-[[(4S)-4-carboxy-4-[10-(4-carboxyphenoxy)-decanoylamino]butanoyl]amino]ethoxy]ethoxy]acetyl]amino]ethoxy]ethoxy]acetyl], N{Epsilon-26}-[2-[2-[2-[[2-[2-[2-[[(4S)-4-carboxy-4-[10-(4-carboxyphenoxy)decanoylamino]butanoyl]-amino]ethoxy]ethoxy]acetyl]amino]ethoxy]ethoxy]acetyl]-[Aib8,Lys18,Glu22,Gln34]-GLP-1-(7-37)-peptide]
Papp A→B [1]: 0.438 ×10⁻⁶ cm/s | Papp A→B [2]: 0.389 ×10⁻⁶ cm/s

CC[C@H](C)[C@H](NC(=O)[C@H](Cc1ccccc1)NC(=O)[C@H](CCC(=O)O)NC(=O)[C@H](CCCCNC(=O)COCCOCCNC(=O)COCCOCCNC(=O)CC[C@H](NC(=O)CCCCCCCCCOc1ccc(C(=O)O)cc1)C(=O)O)NC(=O)[C@H](C)NC(=O)[C@H](C)NC(=O)[C@H](CCC(N)=O)NC(=O)CNC(=O)[C@H](CCC(=O)O)NC(=O)[C@H](CC(C)C)NC(=O)[C@H](Cc1ccc(O)cc1)NC(=O)[C@H](CO)NC(=O)[C@H](CO)NC(=O)[C@@H](NC(=O)[C@H](CC(=O)O)NC(=O)[C@H](CO)NC(=O)[C@@H](NC(=O)[C@H](Cc1ccccc1)NC(=O)[C@@H](NC(=O)CNC(=O)[C@H](CCC(=O)O)NC(=O)C(C)(C)NC(=O)[C@@H](N)Cc1c[nH]cn1)[C@@H](C)O)[C@@H](C)O)C(C)C)C(=O)N[C@@H](C)C(=O)N[C@@H](Cc1c[nH]c2ccccc12)C(=O)N[C@@H](CC(C)C)C(=O)N[C@H](C(=O)N[C@@H](CCCNC(=N)N)C(=O)NCC(=O)N[C@@H](CCCNC(=N)N)C(=O)N[C@@H](CCCCNC(=O)COCCOCCNC(=O)COCCOCCNC(=O)CC[C@H](NC(=O)CCCCCCCCCOc1ccc(C(=O)O)cc1)C(=O)O)C(=O)O)C(C)C [GLP-1 peptide 9, N{Epsilon-26}-[2-[2-[2-[[2-[2-[2-[[(4S)-4-carboxy-4-[10-(4-carboxyphenoxy)-decanoylamino]butanoyl]amino]ethoxy]ethoxy]acetyl]amino]ethoxy]ethoxy]acetyl], N{Epsilon-37}-[2-[2-[2-[[2-[2-[2-[[(4S)-4-carboxy-4-[10-(4-carboxyphenoxy)decanoylamino]butanoyl]-amino]ethoxy]ethoxy]acetyl]amino]ethoxy]ethoxy]acetyl]-[Aib8,Arg34, Lys37]-GLP-1-(7-37)-peptide]
Papp A→B [1]: 0.379 ×10⁻⁶ cm/s | Papp A→B [2]: 0.272 ×10⁻⁶ cm/s

CC[C@H](C)[C@H](NC(=O)[C@H](Cc1ccccc1)NC(=O)[C@H](CCC(=O)O)NC(=O)[C@H](CCCCNC(=O)COCCOCCNC(=O)COCCOCCNC(=O)CC[C@H](NC(=O)CCCCCCCCCCCCCCCCC(=O)O)C(=O)O)NC(=O)[C@H](C)NC(=O)[C@H](C)NC(=O)[C@H](CCC(N)=O)NC(=O)CNC(=O)[C@H](CCC(=O)O)NC(=O)[C@H](CC(C)C)NC(=O)[C@H](Cc1ccc(O)cc1)NC(=O)[C@H](CO)NC(=O)[C@H](CO)NC(=O)[C@@H](NC(=O)[C@H](CC(=O)O)NC(=O)[C@H](CO)NC(=O)[C@@H](NC(=O)[C@H](Cc1ccccc1)NC(=O)[C@@H](NC(=O)CNC(=O)[C@H](CCC(=O)O)NC(=O)C(C)(C)NC(=O)[C@@H](N)Cc1c[nH]cn1)[C@@H](C)O)[C@@H](C)O)C(C)C)C(=O)N[C@@H](C)C(=O)N[C@@H](Cc1c[nH]cn1)C(=O)N[C@@H](CC(C)C)C(=O)N[C@H](C(=O)N[C@@H](CCC(N)=O)C(=O)NCC(=O)N[C@@H](CCCNC(=N)N)C(=O)NCC(=O)O)C(C)C [GLP-1 peptide 8, N{Epsilon-26}-[2-[2-[2-[[2-[2-[2-[[(4S)-4-carboxy-4-(17-carboxy-heptadecanoylamino)butanoyl]amino]ethoxy]ethoxy]acetyl]amino]ethoxy]ethoxy]acetyl]-[Aib8,His31,Gln34]-GLP-1-(7-37)-peptide]
Papp A→B [1]: 0.363 ×10⁻⁶ cm/s | Papp A→B [2]: 0.184 ×10⁻⁶ cm/s
